Key:
B. subtilis 168 [1] = experiment: fitness (endpoint OD595 vs no drug) (fraction); higher = more growth
How it was run: (§1)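 Background-subtracted growth curves were the basis for fitness, taken as the optical density at entry into stationary phase over the robust mean of no-drug control wells. A cap of 1 was applied. The curves came from OD595 readings every 30 min for 14 h at 37 °C, in 384-well plates seeded at OD595 0.01 with 30 µl, or 55 µl for S. pneumoniae.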

S. pneumoniae D39V [2] = experiment: as above
How it was run: as §1

S. aureus Newman [3] = experiment: as above
How it was run: as §1

B. subtilis 168 [4] = experiment: Bliss interaction score (quartile over a dose matrix) (fitness difference); higher = more antagonism (negative = synergy)
How it was run: (§2)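 The Bliss score was calculated by subtracting the expected fitness, the product of single-drug values, from the observed fitness. OD595 at entry into stationary phase, over the plate's robust no-drug mean and capped at 1, served as the fitness readout. Single-drug values were inferred from combination data, and scores are summarised by quartiles across technical, biological and donor/recipient replicates.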

S. pneumoniae D39V [5] = experiment: as above
How it was run: as §2

S. aureus Newman [6] = experiment: as above
How it was run: as §2

S. aureus DSM 20231 = experiment: as above
How it was run: as §2
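Throughout, for Bliss interaction score (quartile over a dose matrix): first quartile when negative (synergy) and third quartile when positive (antagonism).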

CN(N=O)C(=O)N[C@@H](C=O)[C@@H](O)[C@H](O)[C@H](O)CO [Streptozotocin] + CN(C)c1cc(NC(=O)CNC(C)(C)C)c(O)c2c1C[C@H]1C[C@H]3[C@H](N(C)C)C(O)=C(C(N)=O)C(=O)[C@@]3(O)C(O)=C1C2=O [Tigecycline]
fitness (B. subtilis 168 [1]; first compound 0.15 µg/mL, partner 0.039 µg/mL, one replicate): 0.936 | fitness (B. subtilis 168 [1]; first compound 0.15 µg/mL, partner 0.078 µg/mL, one replicate): 0.975 | fitness (B. subtilis 168 [1]; first compound 0.15 µg/mL, partner 0.125 µg/mL, one replicate): 0.958 | fitness (B. subtilis 168 [1]; first compound 0.15 µg/mL, partner 0.156 µg/mL, one replicate): 0.877 | fitness (B. subtilis 168 [1]; first compound 0.15 µg/mL, partner 0.25 µg/mL, one replicate): 0.892 | fitness (B. subtilis 168 [1]; first compound 0.15 µg/mL, partner 0.5 µg/mL, one replicate): 0.921 | fitness (B. subtilis 168 [1]; first compound 0.3 µg/mL, partner 0.039 µg/mL, one replicate): ≥ 1 | fitness (B. subtilis 168 [1]; first compound 0.3 µg/mL, partner 0.078 µg/mL, one replicate): ≥ 1 | fitness (B. subtilis 168 [1]; first compound 0.3 µg/mL, partner 0.125 µg/mL, one replicate): 0.995 | fitness (B. subtilis 168 [1]; first compound 0.3 µg/mL, partner 0.156 µg/mL, one replicate): 0.907 | fitness (B. subtilis 168 [1]; first compound 0.3 µg/mL, partner 0.25 µg/mL, one replicate): 0.836 | fitness (B. subtilis 168 [1]; first compound 0.3 µg/mL, partner 0.5 µg/mL, one replicate): 0.86 | fitness (B. subtilis 168 [1]; first compound 0.6 µg/mL, partner 0.039 µg/mL, one replicate): ≥ 1 | fitness (B. subtilis 168 [1]; first compound 0.6 µg/mL, partner 0.078 µg/mL, one replicate): 0.956 | fitness (B. subtilis 168 [1]; first compound 0.6 µg/mL, partner 0.125 µg/mL, one replicate): 0.961 | fitness (B. subtilis 168 [1]; first compound 0.6 µg/mL, partner 0.156 µg/mL, one replicate): 0.99 | fitness (B. subtilis 168 [1]; first compound 0.6 µg/mL, partner 0.25 µg/mL, one replicate): 0.83 | fitness (B. subtilis 168 [1]; first compound 0.6 µg/mL, partner 0.5 µg/mL, one replicate): 0.904 | fitness (S. pneumoniae D39V [2]; first compound 1.2 µg/mL, partner 0.65 µg/mL): 0.934 | fitness (S. pneumoniae D39V [2]; first compound 1.2 µg/mL, partner 1.3 µg/mL): 0.952 | fitness (S. pneumoniae D39V [2]; first compound 1.2 µg/mL, partner 2.6 µg/mL): 0.964 | fitness (S. pneumoniae D39V [2]; first compound 2.4 µg/mL, partner 0.65 µg/mL): 0.965 | fitness (S. pneumoniae D39V [2]; first compound 2.4 µg/mL, partner 1.3 µg/mL): 0.987 | fitness (S. pneumoniae D39V [2]; first compound 2.4 µg/mL, partner 2.6 µg/mL): 0.948 | fitness (S. pneumoniae D39V [2]; first compound 4.8 µg/mL, partner 0.65 µg/mL): 0.973 | fitness (S. pneumoniae D39V [2]; first compound 4.8 µg/mL, partner 1.3 µg/mL): 0.939 | fitness (S. pneumoniae D39V [2]; first compound 4.8 µg/mL, partner 2.6 µg/mL): 0.956 | fitness (S. aureus Newman [3]; first compound 0.15 µg/mL, partner 0.039 µg/mL): 0.829 | fitness (S. aureus Newman [3]; first compound 0.15 µg/mL, partner 0.078 µg/mL): 0.837 | fitness (S. aureus Newman [3]; first compound 0.15 µg/mL, partner 0.156 µg/mL): 0.904 | fitness (S. aureus Newman [3]; first compound 0.3 µg/mL, partner 0.039 µg/mL): 0.711 | fitness (S. aureus Newman [3]; first compound 0.3 µg/mL, partner 0.078 µg/mL): 0.685 | fitness (S. aureus Newman [3]; first compound 0.3 µg/mL, partner 0.156 µg/mL): 0.711 | fitness (S. aureus Newman [3]; first compound 0.6 µg/mL, partner 0.039 µg/mL): 0.555 | fitness (S. aureus Newman [3]; first compound 0.6 µg/mL, partner 0.078 µg/mL): 0.504 | fitness (S. aureus Newman [3]; first compound 0.6 µg/mL, partner 0.156 µg/mL): 0.511 | Bliss interaction score (B. subtilis 168 [4]): -0.0405 | Bliss interaction score (S. pneumoniae D39V [5]): 0.0675 | Bliss interaction score (S. aureus Newman [6]): 0.0493 | Bliss interaction score (S. aureus DSM 20231): 0.0681

CNC(C)C1CCC(N)C(OC2C(N)CC(N)C(OC3OCC(C)(O)C(NC)C3O)C2O)O1 (configuration not stated) [Gentamicin] + CN(N=O)C(=O)N[C@@H](C=O)[C@@H](O)[C@H](O)[C@H](O)CO [Streptozotocin]
fitness (B. subtilis 168 [1]; first compound 0.0625 µg/mL, partner 0.15 µg/mL, main component drawn): 0.949 | fitness (B. subtilis 168 [1]; first compound 0.0625 µg/mL, partner 0.3 µg/mL, main component drawn): 0.952 | fitness (B. subtilis 168 [1]; first compound 0.0625 µg/mL, partner 0.6 µg/mL, main component drawn): 0.956 | fitness (B. subtilis 168 [1]; first compound 0.25 µg/mL, partner 0.15 µg/mL, main component drawn): 0.161 | fitness (B. subtilis 168 [1]; first compound 0.25 µg/mL, partner 0.3 µg/mL, main component drawn): 0.164 | fitness (B. subtilis 168 [1]; first compound 0.25 µg/mL, partner 0.6 µg/mL, main component drawn): 0.12 | fitness (S. pneumoniae D39V [2]; first compound 2 µg/mL, partner 1.2 µg/mL, main component drawn): 0.892 | fitness (S. pneumoniae D39V [2]; first compound 2 µg/mL, partner 2.4 µg/mL, main component drawn): 0.949 | fitness (S. pneumoniae D39V [2]; first compound 2 µg/mL, partner 4.8 µg/mL, main component drawn): 0.914 | fitness (S. pneumoniae D39V [2]; first compound 4 µg/mL, partner 1.2 µg/mL, main component drawn): 0.93 | fitness (S. pneumoniae D39V [2]; first compound 4 µg/mL, partner 2.4 µg/mL, main component drawn): 0.966 | fitness (S. pneumoniae D39V [2]; first compound 4 µg/mL, partner 4.8 µg/mL, main component drawn): 0.949 | fitness (S. pneumoniae D39V [2]; first compound 8 µg/mL, partner 1.2 µg/mL, main component drawn): 0.942 | fitness (S. pneumoniae D39V [2]; first compound 8 µg/mL, partner 2.4 µg/mL, main component drawn): 0.967 | fitness (S. pneumoniae D39V [2]; first compound 8 µg/mL, partner 4.8 µg/mL, main component drawn): 0.878 | fitness (S. aureus Newman [3]; first compound 0.375 µg/mL, partner 0.15 µg/mL, one replicate, main component drawn): 0.851 | fitness (S. aureus Newman [3]; first compound 0.375 µg/mL, partner 0.3 µg/mL, one replicate, main component drawn): 0.717 | fitness (S. aureus Newman [3]; first compound 0.375 µg/mL, partner 0.6 µg/mL, one replicate, main component drawn): 0.534 | fitness (S. aureus Newman [3]; first compound 0.5 µg/mL, partner 0.15 µg/mL, main component drawn): 0.871 | fitness (S. aureus Newman [3]; first compound 0.5 µg/mL, partner 0.3 µg/mL, main component drawn): 0.801 | fitness (S. aureus Newman [3]; first compound 0.5 µg/mL, partner 0.6 µg/mL, main component drawn): 0.708 | fitness (S. aureus Newman [3]; first compound 0.75 µg/mL, partner 0.15 µg/mL, one replicate, main component drawn): 0.848 | fitness (S. aureus Newman [3]; first compound 0.75 µg/mL, partner 0.3 µg/mL, one replicate, main component drawn): 0.687 | fitness (S. aureus Newman [3]; first compound 0.75 µg/mL, partner 0.6 µg/mL, one replicate, main component drawn): 0.585 | fitness (S. aureus Newman [3]; first compound 1 µg/mL, partner 0.15 µg/mL, main component drawn): 0.888 | fitness (S. aureus Newman [3]; first compound 1 µg/mL, partner 0.3 µg/mL, main component drawn): 0.844 | fitness (S. aureus Newman [3]; first compound 1 µg/mL, partner 0.6 µg/mL, main component drawn): 0.724 | fitness (S. aureus Newman [3]; first compound 1.5 µg/mL, partner 0.15 µg/mL, one replicate, main component drawn): 0.777 | fitness (S. aureus Newman [3]; first compound 1.5 µg/mL, partner 0.3 µg/mL, one replicate, main component drawn): 0.706 | fitness (S. aureus Newman [3]; first compound 1.5 µg/mL, partner 0.6 µg/mL, one replicate, main component drawn): 0.561 | fitness (S. aureus Newman [3]; first compound 2 µg/mL, partner 0.15 µg/mL, main component drawn): 0.898 | fitness (S. aureus Newman [3]; first compound 2 µg/mL, partner 0.3 µg/mL, main component drawn): 0.856 | fitness (S. aureus Newman [3]; first compound 2 µg/mL, partner 0.6 µg/mL, main component drawn): 0.732 | Bliss interaction score (B. subtilis 168 [4]; main component drawn): -0.125 | Bliss interaction score (S. pneumoniae D39V [5]; main component drawn): 0.0654 | Bliss interaction score (S. aureus Newman [6]; main component drawn): 0.0523 | Bliss interaction score (S. aureus DSM 20231; main component drawn): -0.0423
